Like-named read-outs stand apart in the source and are kept apart here.
Target: T1, LRRK2 (Homo sapiens, UniProt Q5S007, G2019S)
T1 construct: purchased Invitrogen PV4882 (lot 567054A)
Assay: In Vitro LRRK2 Assay (LabChip 3000, fluorescently-labeled peptide substrate, ATP)
Type: biochemical
In short: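 LRRK2, fluorescent peptide substrate (diluted to 4 μM before mixing), ATP and compound were incubated 2 h in the dark, then stopped. Phosphorylated and unphosphorylated peptide were separated by capillary electrophoresis and quantified by fluorescence. Ki was fitted with a tight-binding equation including enzyme concentration, S and Km; IC50 or percent inhibition were also reported.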

[1] = Table 9, LRRK2 Ki (micromolar), read-out: LRRK2 Ki (KI)
[2] = read-out: LRRK2 Ki given in the example
[3] = Table 10, LRRK2 Ki (micromolar), read-out: LRRK2 Ki (KI)

T1 sequence (Q5S007 whole entry G2019S): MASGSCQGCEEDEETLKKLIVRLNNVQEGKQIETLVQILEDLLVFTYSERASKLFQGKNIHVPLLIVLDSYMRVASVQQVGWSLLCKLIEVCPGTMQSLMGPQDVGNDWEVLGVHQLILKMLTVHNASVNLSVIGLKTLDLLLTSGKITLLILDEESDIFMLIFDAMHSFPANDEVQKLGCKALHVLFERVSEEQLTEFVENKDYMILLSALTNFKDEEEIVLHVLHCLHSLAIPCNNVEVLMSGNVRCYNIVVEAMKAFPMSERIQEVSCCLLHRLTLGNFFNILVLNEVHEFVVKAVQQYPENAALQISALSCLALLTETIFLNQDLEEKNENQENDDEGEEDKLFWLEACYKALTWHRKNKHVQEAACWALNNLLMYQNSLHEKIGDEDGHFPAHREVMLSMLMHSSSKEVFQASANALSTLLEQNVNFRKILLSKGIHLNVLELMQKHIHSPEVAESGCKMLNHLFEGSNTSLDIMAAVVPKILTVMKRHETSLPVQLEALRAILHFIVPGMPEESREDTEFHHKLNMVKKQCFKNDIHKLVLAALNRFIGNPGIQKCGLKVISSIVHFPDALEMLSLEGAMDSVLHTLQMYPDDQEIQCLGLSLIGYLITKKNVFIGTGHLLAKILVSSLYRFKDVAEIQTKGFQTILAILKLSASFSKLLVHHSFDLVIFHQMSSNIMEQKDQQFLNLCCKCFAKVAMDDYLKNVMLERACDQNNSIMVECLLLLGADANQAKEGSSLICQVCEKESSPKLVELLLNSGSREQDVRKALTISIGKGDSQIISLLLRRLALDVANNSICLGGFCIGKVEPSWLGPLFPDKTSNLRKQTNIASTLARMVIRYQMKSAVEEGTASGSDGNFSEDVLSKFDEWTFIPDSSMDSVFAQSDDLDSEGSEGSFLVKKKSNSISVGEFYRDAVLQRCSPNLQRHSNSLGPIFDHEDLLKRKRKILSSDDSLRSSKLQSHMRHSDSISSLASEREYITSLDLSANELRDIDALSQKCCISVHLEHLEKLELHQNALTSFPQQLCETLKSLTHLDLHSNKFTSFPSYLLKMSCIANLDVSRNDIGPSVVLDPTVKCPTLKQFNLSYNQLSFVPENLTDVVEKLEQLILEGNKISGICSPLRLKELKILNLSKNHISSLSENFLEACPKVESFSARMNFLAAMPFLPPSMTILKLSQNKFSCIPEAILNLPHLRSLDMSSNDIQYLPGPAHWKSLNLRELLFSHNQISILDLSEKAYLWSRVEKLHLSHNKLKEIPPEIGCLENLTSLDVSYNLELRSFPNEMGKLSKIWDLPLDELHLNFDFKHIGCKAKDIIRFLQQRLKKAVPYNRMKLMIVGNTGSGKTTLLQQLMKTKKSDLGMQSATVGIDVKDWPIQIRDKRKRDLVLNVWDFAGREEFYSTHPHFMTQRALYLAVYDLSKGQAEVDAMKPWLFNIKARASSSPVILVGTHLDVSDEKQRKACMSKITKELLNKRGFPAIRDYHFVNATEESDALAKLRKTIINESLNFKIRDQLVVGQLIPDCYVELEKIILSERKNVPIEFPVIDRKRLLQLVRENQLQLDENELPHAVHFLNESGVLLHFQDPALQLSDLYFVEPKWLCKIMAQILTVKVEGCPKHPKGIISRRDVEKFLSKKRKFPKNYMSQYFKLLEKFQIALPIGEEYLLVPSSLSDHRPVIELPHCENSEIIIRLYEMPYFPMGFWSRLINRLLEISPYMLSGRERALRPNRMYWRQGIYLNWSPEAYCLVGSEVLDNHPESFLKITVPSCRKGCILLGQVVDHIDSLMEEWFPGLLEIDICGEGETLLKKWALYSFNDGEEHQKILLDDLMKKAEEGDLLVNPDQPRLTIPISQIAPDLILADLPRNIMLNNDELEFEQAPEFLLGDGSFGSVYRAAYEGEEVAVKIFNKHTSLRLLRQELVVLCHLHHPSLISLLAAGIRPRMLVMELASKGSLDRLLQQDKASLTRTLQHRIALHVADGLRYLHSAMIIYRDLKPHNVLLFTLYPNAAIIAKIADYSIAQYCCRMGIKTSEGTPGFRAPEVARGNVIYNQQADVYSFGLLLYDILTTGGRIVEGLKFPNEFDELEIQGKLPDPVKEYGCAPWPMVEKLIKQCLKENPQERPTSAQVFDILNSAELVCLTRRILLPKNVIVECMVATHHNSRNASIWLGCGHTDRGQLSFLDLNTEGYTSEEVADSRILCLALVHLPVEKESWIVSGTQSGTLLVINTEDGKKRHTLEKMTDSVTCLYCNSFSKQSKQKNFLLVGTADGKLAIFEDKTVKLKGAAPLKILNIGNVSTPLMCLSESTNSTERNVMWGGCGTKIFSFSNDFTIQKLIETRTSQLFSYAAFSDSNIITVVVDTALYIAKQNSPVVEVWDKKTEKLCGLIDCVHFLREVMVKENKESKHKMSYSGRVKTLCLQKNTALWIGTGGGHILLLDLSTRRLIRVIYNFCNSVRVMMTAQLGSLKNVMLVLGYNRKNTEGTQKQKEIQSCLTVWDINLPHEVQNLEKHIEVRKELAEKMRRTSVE

Compound	Ki [3] [nM]	further results
CNc1nc(Nc2cn(C3COC3)nc2C)ncc1C#N [Example 389, 4-Methylamino-2-(3-methyl-1-oxetan-3-yl-1H-pyrazol-4-ylamino)-pyrimidine-5-carbonitrile]		Ki [1]: 37.2 nM
CNc1nc(Nc2cnn(-c3cc(F)cc(F)c3)c2C)ncc1C#N [Example 390, 2-[1-(3,5-Difluoro-phenyl)-5-methyl-1H-pyrazol-4-ylamino]-4-methylamino-pyrimidine-5-carbonitrile]		Ki [1]: 241 nM
Cc1c(Nc2ncc(C#N)c(OCC(F)F)n2)cnn1C [Example 391, 4-(2,2-Difluoro-ethoxy)-2-(1,5-dimethyl-1H-pyrazol-4-ylamino)-pyrimidine-5-carbonitrile]		Ki [1]: 211 nM
CNc1nc(Nc2cn(C3CCC(F)(F)CC3)nc2C)ncc1C#N [Example 392, 2-[1-(4,4-Difluoro-cyclohexyl)-3-methyl-1H-pyrazol-4-ylamino]-4-methylamino-pyrimidine-5-carbonitrile]		Ki [1]: 266 nM
CNc1nc(Nc2cc(C(=O)N3CCOCC3)nn2C)ncc1Cl [Example 393, (5-(5-chloro-4-(methylamino)pyrimidin-2-ylamino)-1-methyl-1H-pyrazol-3-yl)(morpholino)methanone]		Ki [2]: 160 nM
CNc1nc(Nc2cn(C(C)(C)C#N)nc2C)ncc1C(F)(F)F [Example 394, 2-methyl-2-(3-methyl-4-(4-(methylamino)-5-(trifluoromethyl)pyrimidin-2-ylamino)-1H-pyrazol-1-yl)propanenitrile]		Ki [2]: 0.5 nM
CNc1nc(Nc2cnn(CC(=O)N(C)C)c2C)ncc1C(F)(F)F [Example 395, N,N-dimethyl-2-(5-methyl-4-(4-(methylamino)-5-(trifluoromethyl)pyrimidim-2-ylamino)-1H-pyrazol-1-yl)acetamide]	15	
CNC(=O)Cn1ncc(Nc2ncc(C(F)(F)F)c(NC)n2)c1C [Example 398, N-methyl-2-(5-methyl-4-(4-(methylamino)-5-(trifluoromethyl)pyrimidin-2-ylamino)-1H-pyrazol-1-yl)acetamide]	3	
CNc1nc(Nc2cnn(C(C)(C)C(=O)N(C)C)c2C)ncc1C(F)(F)F [Example 399, N,N,2-trimethyl-2-(5-methyl-4-(4-(methylamino)-5-(trifluoromethyl)pyrimidin-2-ylamino)-1H-pyrazol-1-yl)propanamide]	314	
CNc1nc(Nc2cnn(C(C)(C)C#N)c2C)ncc1C(F)(F)F [Example 401, 2-methyl-2-(5-methyl-4-(4-(methylamino)-5-(trifluoromethyl)pyrimidin-2-ylamino)-1H-pyrazol-1-yl)propanenitrile]	0.7	
CNc1nc(Nc2cnn(C(C)(C)C(=O)OC)c2C)ncc1C(F)(F)F [Example 409, methyl 2-methyl-2-(5-methyl-4-(4-(methylamino)-5-(trifluoromethyl)pyrimidin-2-ylamino)-1H-pyrazol-1-yl)propanoate]	7.6	
CCc1nn(C(C)(C)C#N)cc1Nc1ncc(C(F)(F)F)c(NC)n1 [Example 410, 2-(3-ethyl-4-(4-(methylamino)-5-(trifluoromethyl)pyrimidin-2-ylamino)-1H-pyrazol-1-yl)-2-methylpropanenitrile]	10	
CNc1nc(Nc2cnn([C@H](C)C(=O)N(C)C)c2C)ncc1C(F)(F)F [Example 412, (R)-N,N-dimethyl-2-(5-methyl-4-(4-(methylamino)-5-(trifluoromethyl)pyrimidin-2-ylamino)-1H-pyrazol-1-yl)propanamide]	28.4	
CNc1nc(Nc2cnn([C@@H](C)C(=O)N(C)C)c2C)ncc1C(F)(F)F [Example 414, (S)-N,N-dimethyl-2-(5-methyl-4-(4-(methylamino)-5-(trifluoromethyl)pyrimidin-2-ylamino)-1H-pyrazol-1-yl)propanamide]	30	
CNc1nc(Nc2cnn([C@@H](C)C#N)c2C)ncc1C(F)(F)F [Example 415, (S)-2-(5-methyl-4-(4-(methylamino)-5-(trifluoromethyl)pyrimidin-2-ylamino)-1H-pyrazol-1-yl)propanenitrile]	9.5	
CNc1nc(Nc2cn(C(C)(C)C#N)nc2C)ncc1Cl [Example 417, 2-(4-(5-chloro-4-(methylamino)pyrimidin-2-ylamino)-3-methyl-1H-pyrazol-1-yl)-2-methylpropanenitrile]	2.1	
CNc1nc(Nc2cnn(C(C)(C)C#N)c2Cl)ncc1C(F)(F)F [Example 418, 2-(5-chloro-4-(4-(methylamino)-5-(trifluoromethyl)pyrimidin-2-ylamino)-1H-pyrazol-1-yl)-2-methylpropanenitrile]	1.9	
CNc1nc(Nc2cn(C(C)(C)C#N)nc2C2CC2)ncc1C(F)(F)F [Example 419, 2-(3-cyclopropyl-4-(4-(methylamino)-5-(trifluoromethyl)pyrimidin-2-ylamino)-1H-pyrazol-1-yl)-2-methylpropanenitrile]	1	
CNc1nc(Nc2cnn(C3(C#N)CC3)c2Cl)ncc1C(F)(F)F [Example 422, 1-(5-chloro-4-(4-(methylamino)-5-(trifluoromethyl)pyrimidin-2-ylamino)-1H-pyrazol-1-yl)cyclopropane-carbonitrile]	2.3	
CNc1nc(Nc2cn(C(C)(C)C(=O)NC(C)(C)C)nc2C)ncc1C(F)(F)F [Example 423, N-tert-butyl-2-methyl-2-(3-methyl-4-(4-(methylamino)-5-(trifluoromethyl)pyrimidin-2-ylamino)-1H-pyrazol-1-yl)propanamide]	73	
CNc1nc(Nc2cn(C(C)(C)C(=O)NCC(F)(F)F)nc2C)ncc1C(F)(F)F [Example 424]	6.3	
CCNC(=O)C(C)(C)n1ncc(Nc2ncc(C(F)(F)F)c(NC)n2)c1Cl [Example 425, 2-(5-chloro-4-(4-(methylamino)-5-(trifluoromethyl)pyrimidin-2-ylamino)-1H-pyrazol-1-yl)-N-ethyl-2-methyl propanamide]	35.5	
CNc1nc(Nc2cnn(C(C)(C)C(=O)NCC3CC3)c2C)ncc1C(F)(F)F [Example 426, N-(cyclopropylmethyl)-2-methyl-2-(5-methyl-4-(4-(methylamino)-5-(trifluoromethyl)pyrimidin-2-ylamino)-1H-pyrazol-1-yl)propanamide]	9	

Further lines, with some results ahead:

Ki [3] [nM]	Compound	further results
4	CNc1nc(Nc2cn(CC(=O)N(C)C)nc2C)ncc1C(F)(F)F [Example 396, N,N-dimethyl-2-(3-methyl-4-(4-(methylamino)-5-(trifluoromethyl)pyrimidin-2-ylamino)-1H-pyrazol-1-yl)acetamide]	
9.5	CNC(=O)Cn1cc(Nc2ncc(C(F)(F)F)c(NC)n2)c(C)n1 [Example 397, N-methyl-2-(3-methyl-4-(4-(methylamino)-5-(trifluoromethyl)pyrimidin-2-ylamino)-1H-pyrazol-1-yl)acetamide]	
404	CNc1nc(Nc2cnn(C(C)(C)C(=O)N3CCCC3)c2C)ncc1C(F)(F)F [Example 400, 2-methyl-2-(5-methyl-4-(4-(methylamino)-5-(trifluoromethyl)pyrimidin-2-ylamino)-1H-pyrazol-1-yl)-1-(pyrrolidin-1-yl)propan-1-one]	
3.7	CNc1nc(Nc2cn(C3(C#N)CC3)nc2C)ncc1C(F)(F)F [Example 402, 1-(3-methyl-4-(4-(methylamino)-5-(trifluoromethyl)pyrimidin-2-ylamino)-1H-pyrazol-1-yl)cyclopropane-carbonitrile]	
16	CNc1nc(Nc2cn([C@H](C)C(=O)N3CCCC3)nc2C)ncc1C(F)(F)F [Example 403, (R)-2-(3-methyl-4-(4-(methylamino)-5-(trifluoromethyl)pyrimidin-2-ylamino)-1H-pyrazol-1-yl)-1-(pyrrolidin-l-yl)propan-1-one]	
18	CNc1nc(Nc2cn([C@H](C)C(=O)N(C)C)nc2C)ncc1C(F)(F)F [Example 404, (R)-N,N-dimethyl-2-(3-methyl-4-(4-(methylamino)-5-(trifluoromethyl)pyrimidin-2-ylamino)-1H-pyrazol-1-yl)propanamide]	
22	CNc1nc(Nc2cn([C@@H](C)C(=O)N3CCCC3)nc2C)ncc1C(F)(F)F [Example 405, (S)-2-(3-methyl-4 (4-(methylamino)-5-(trifluoromethyl)pyrimidin-2-ylamino)-1H-pyrazol-1-yl)-1-(pyrrolidin-1-yl)propan-1-one]	
4.7	CNc1nc(Nc2cn(C(C)(C)C(=O)OC)nc2C)ncc1C(F)(F)F [Example 408, methyl 2-methyl-2-(3-methyl-4-(4-(methylamino)-5-(trifluoromethyl)pyrimidin-2-ylamino)-1H-pyrazol-1-yl)propanoate]	
39	CNc1nc(Nc2cnn([C@H](C)C(=O)N3CCCC3)c2C)ncc1C(F)(F)F [Example 411, (R)-2-(5-methyl-4-(4-(methylamino)-5-(trifluoromethyl)pyrimidin-2-ylamino)-1H-pyrazol-1-yl)-1-(pyrrolidin-1-yl)propan-1-one]	
40	CNc1nc(Nc2cnn([C@@H](C)C(=O)N3CCCC3)c2C)ncc1C(F)(F)F [Example 413, (S)-2-(5-methyl-4-(4-(methylamino)-5-(trifluoromethyl)pyrimidin-2-ylamino)-1H-pyrazol-1-yl)-1-(pyrrolidin-1-yl)propan-1-one]	
1.9	CNc1nc(Nc2cn([C@@H](C)C#N)nc2C)ncc1C(F)(F)F [Example 416, (S)-2-(3-methyl-4-(4-(methylamino)-5-(trifluoromethyl)pyrimidin-2-ylamino)-1H-pyrazol-1-yl)propanenitrile]	
2.8	CNc1nc(Nc2cn(CC(C)(C)C#N)nc2C)ncc1C(F)(F)F [Example 420, 2,2-dimethyl-3-(3-methyl-4-(4-(methylamino)-5-(trifluoromethyl)pyrimidin-2-ylamino)-1H-pyrazol-1-yl)propanenitrile]	

From patent publication US8815882B2, “Pyrazole aminopyrimidine derivatives as LRRK2 modulators” (Genentech, Inc., priority 2010, dated 2014)
